Target: CYP3A4 (Homo sapiens, UniProt P08684)
Test: Determination of CYP3A4 inhibitory activity (human liver microsome, Luciferin-IPA)
Conditions: CYP3A4 IC50 (nM), 37° C. 11 minutes
Method: The standard final Compound concentrations were 37, 111, 333, 1000, and 3000 nM. 12.5 μL of the Compound dilutions were transferred to a white 96-well plate. […] 25 μL of the buffer was added to each well. The plates were incubated at 37° C. for 11 minutes. 50 μL of luciferin detection reagent (Promega V9002) was added and the plates were incubated at room temperature for 5 minutes. The plate was read with a luminometer.
The dose-response curve and IC50 were obtained by fitting data to nonlinear regression model using GraphPad Prism software (v6.0).

Sequence of CYP3A4 (P08684 whole entry): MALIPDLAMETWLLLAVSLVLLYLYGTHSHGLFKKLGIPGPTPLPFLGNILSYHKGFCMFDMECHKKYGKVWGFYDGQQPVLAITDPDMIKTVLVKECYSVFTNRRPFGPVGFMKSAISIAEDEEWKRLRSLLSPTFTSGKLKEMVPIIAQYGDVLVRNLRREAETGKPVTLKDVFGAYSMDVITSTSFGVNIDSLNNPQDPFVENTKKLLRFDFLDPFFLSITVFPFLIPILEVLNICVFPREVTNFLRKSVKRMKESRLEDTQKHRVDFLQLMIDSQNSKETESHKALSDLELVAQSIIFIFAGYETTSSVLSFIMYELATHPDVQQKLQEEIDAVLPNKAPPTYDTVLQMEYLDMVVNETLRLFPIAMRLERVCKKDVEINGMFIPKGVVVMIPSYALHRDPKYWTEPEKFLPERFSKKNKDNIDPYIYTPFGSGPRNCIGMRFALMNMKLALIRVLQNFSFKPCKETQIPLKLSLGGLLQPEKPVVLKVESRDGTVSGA

Structure (SMILES) | IC50 [nM]
COc1cc(NC(=O)c2cc(=O)c3ccccc3o2)c(C(=O)Nc2ccc(CCN(C)Cc3cccc(-c4cccnc4)c3)cc2)cc1OC [Compound 7] | 500 to 1000
COc1cc(NC(=O)c2cc(=O)c3ccccc3o2)c(C(=O)Nc2ccc(CCN(C)Cc3cccc(-n4cnc(C)c4)c3)cc2)cc1OC [Compound 11] | 500 to 1000
COc1cc(NC(=O)c2cc(=O)c3ccccc3o2)c(C(=O)Nc2ccc(CCN(C)Cc3ccc4c(c3)CNN4C)cc2)cc1OC [Compound 12] | > 1000
COc1cc(NC(=O)c2cc(=O)c3ccccc3o2)c(C(=O)Nc2ccc(CCN(C)Cc3cccc(-c4c[nH]cn4)c3)cc2)cc1OC [Compound 13] | > 1000
COc1cc(NC(=O)c2cc(=O)c3ccccc3o2)c(C(=O)Nc2ccc(CCN(C)Cc3cccc(-c4cncs4)c3)cc2)cc1OC [Compound 15] | 500 to 1000
COc1cc(NC(=O)c2cc(=O)c3ccccc3o2)c(C(=O)Nc2ccc(CCN(Cc3ccc(-n4ccnc4)cc3)Cc3ccc4c(cnn4C)c3)cc2)cc1OC [Compound 26] | 250 to 500
COc1cc(NC(=O)c2cnc3ccccc3n2)c(C(=O)Nc2ccc(CCN(Cc3cccc(-n4ccnc4)c3)Cc3ccc4c(cnn4C)c3)cc2)cc1OC [Compound 30] | 500 to 1000
COc1cc(NC(=O)c2cc(=O)c3ccccc3o2)c(C(=O)Nc2ccc(CCN(CC3=CNCN3C)Cc3ccc4cnn(C)c4c3)cc2)cc1OC [Compound 35] | > 1000
COc1cc(NC(=O)c2cc(=O)c3cc(C)cc(C)c3o2)c(C(=O)Nc2ccc(CCN(Cc3cccnc3)Cc3ccc4c(cnn4C)c3)cc2)cc1OC [Compound 39] | 250 to 500
COc1cc(NC(=O)c2cc(=O)c3ccccc3o2)c(C(=O)Nc2ccc(CCN(Cc3cccnc3)Cc3ccc4cnn(C)c4c3)cc2)cc1OC [Compound 42] | 250 to 500
COc1cc(NC(=O)c2cc(=O)c3ccccc3o2)c(C(=O)Nc2ccc(CCN(Cc3cccnc3)Cc3ccc4c(c3)CCO4)cc2)cc1OC [Compound 45] | 250 to 500
COc1cc(NC(=O)c2cc(=O)c3ccccc3o2)c(C(=O)Nc2ccc(CCN(Cc3cncc(F)c3)Cc3ccc4c(cnn4C)c3)cc2)cc1OC [Compound 46] | 250 to 500
COc1cc(NC(=O)c2cc(=O)c3ccccc3o2)c(C(=O)Nc2ccc(CCN(Cc3ccc4c(cnn4C)c3)Cc3ccncc3F)cc2)cc1OC [Compound 47] | 250 to 500
COc1cnccc1CN(CCc1ccc(NC(=O)c2cc(OC)c(OC)cc2NC(=O)c2cc(=O)c3ccccc3o2)cc1)Cc1ccc2c(cnn2C)c1 [Compound 49] | 250 to 500
COc1cncc(CN(CCc2ccc(NC(=O)c3cc(OC)c(OC)cc3NC(=O)c3cnc4ccccc4c3)cc2)Cc2ccc3c(cnn3C)c2)c1 [Compound 51] | 250 to 500
COc1cncc(CN(CCc2ccc(NC(=O)c3cc(OC)c(OC)cc3NC(=O)c3cc(=O)c4cc(C)ccc4o3)cc2)Cc2ccc3c(cnn3C)c2)c1 [Compound 52] | 250 to 500
COCCOc1cncc(CN(CCc2ccc(NC(=O)c3cc(OC)c(OC)cc3NC(=O)c3cc(=O)c4ccccc4o3)cc2)Cc2ccc3c(cnn3C)c2)c1 [Compound 56] | 250 to 500
COc1cc(NC(=O)c2cc(=O)c3ccccc3o2)c(C(=O)Nc2ccc(CCN(Cc3cncc(C)c3)Cc3ccc4c(cnn4C)c3)cc2)cc1OC [Compound 57] | 250 to 500
COc1cc(NC(=O)c2cc(=O)c3ccccc3o2)c(C(=O)Nc2ccc(CCN(Cc3cncc(-n4ccnc4C)c3)Cc3ccc4c(cnn4C)c3)cc2)cc1OC [Compound 58] | 500 to 1000
COCCOc1cncc(CN(CCc2ccc(NC(=O)c3cc(OC)c(OC)cc3NC(=O)c3cc(=O)c4cc(C)ccc4o3)cc2)Cc2ccc3c(cnn3C)c2)c1 [Compound 60] | 250 to 500
COCCOc1cncc(CN(CCc2ccc(NC(=O)c3cc(OC)c(OC)cc3NC(=O)c3cnc4ccccc4c3)cc2)Cc2ccc3c(cnn3C)c2)c1 [Compound 61] | 250 to 500
COCCOc1cncc(CN(CCc2ccc(NC(=O)c3cc(OC)c(OC)cc3NC(=O)c3cnc4ccccc4n3)cc2)Cc2ccc3c(cnn3C)c2)c1 [Compound 62] | 500 to 1000
COc1cncc(CN(CCc2ccc(NC(=O)c3cc(OC)c(OC)cc3NC(=O)c3cc(=O)c4ccccc4o3)cc2)Cc2ccc3c(c2)c(C)nn3C)c1 [Compound 63] | 500 to 1000

Next, values leading:

IC50 [nM] | Structure (SMILES)
100 to 250 | COc1cc(NC(=O)c2cc(=O)c3ccccc3o2)c(C(=O)Nc2ccc(CCN(C)Cc3ccc(-n4ccnc4)cc3)cc2)cc1OC [Compound 1]
100 to 250 | COc1cc(NC(=O)c2cnc3ccccc3c2)c(C(=O)Nc2ccc(CCN(C)Cc3ccc(-n4ccnc4)cc3)cc2)cc1OC [Compound 2]
100 to 250 | COc1cc(NC(=O)c2cc(=O)c3ccccc3o2)c(C(=O)Nc2ccc(CCN(C)Cc3cccc(-n4ccnc4)c3)cc2)cc1OC [Compound 3]
100 to 250 | COc1cc(NC(=O)c2cc(=O)c3ccccc3o2)c(C(=O)Nc2ccc(CCN(Cc3cccc(-n4ccnc4)c3)CC3CC3)cc2)cc1OC [Compound 9]
250 to 500 | COc1cc(NC(=O)c2cc(=O)c3ccccc3o2)c(C(=O)Nc2ccc(CCN(Cc3cccc(-n4ccnc4)c3)C(C)C)cc2)cc1OC [Compound 10]
250 to 500 | COc1cc(NC(=O)c2cc(=O)c3ccccc3o2)c(C(=O)Nc2ccc(CCN(Cc3cccc(-n4ccnc4)c3)Cc3ccc4c(cnn4C)c3)cc2)cc1OC [Compound 16]
< 100 | COc1cc(NC(=O)c2cc(=O)c3ccccc3o2)c(C(=O)Nc2ccc(CCN(C)Cc3cccc(OC[C@@H]4CO[C@@](Cn5ccnc5)(c5ccc(Cl)cc5Cl)O4)c3)cc2)cc1OC [Compound 17]
< 100 | COc1cc(NC(=O)c2cc(=O)c3ccccc3o2)c(C(=O)Nc2ccc(CCN(Cc3cncn3C)Cc3cncn3C)cc2)cc1OC [Compound 18]
250 to 500 | COc1cc(NC(=O)c2cc(=O)c3ccccc3o2)c(C(=O)Nc2ccc(CCN(C)Cc3ccc(-n4cncn4)cc3)cc2)cc1OC [Compound 19]
100 to 250 | CCN(CCc1ccc(NC(=O)c2cc(OC)c(OC)cc2NC(=O)c2cc(=O)c3ccccc3o2)cc1)Cc1ccc(-n2cncn2)cc1 [Compound 20]
< 100 | COc1cc(NC(=O)c2cc(=O)c3ccccc3o2)c(C(=O)Nc2ccc(CCN(Cc3ccc4c(cnn4C)c3)Cc3cncn3C)cc2)cc1OC [Compound 21]
250 to 500 | COc1cc(NC(=O)c2cc(=O)c3ccccc3o2)c(C(=O)Nc2ccc(CCN(Cc3cccc(-n4cnc(C)c4)c3)Cc3ccc4c(cnn4C)c3)cc2)cc1OC [Compound 23]
100 to 250 | CCN(CCc1ccc(NC(=O)c2cc(OC)c(OC)cc2NC(=O)c2cc(=O)c3ccccc3o2)cc1)Cc1ccc(OC)c(Cn2cncn2)c1 [Compound 24]
250 to 500 | CCN(CCc1ccc(NC(=O)c2cc(OC)c(OC)cc2NC(=O)c2cc(=O)c3ccccc3o2)cc1)Cc1cccn1Cc1cccnc1 [Compound 25]
100 to 250 | COc1ccc(CN(CCc2ccc(NC(=O)c3cc(OC)c(OC)cc3NC(=O)c3cc(=O)c4ccccc4o3)cc2)Cc2cccc(-n3ccnc3)c2)cc1OC [Compound 27]
100 to 250 | COc1ccc(CN(CCc2ccc(NC(=O)c3cc(OC)c(OC)cc3NC(=O)c3cc(=O)c4ccccc4o3)cc2)Cc2ccc(-n3ccnc3)cc2)cc1OC [Compound 28]

IC50 [nM] | Structure (SMILES)
100 to 250 | COc1ccc(CN(CCc2ccc(NC(=O)c3cc(OC)c(OC)cc3NC(=O)c3cc(=O)c4ccccc4o3)cc2)Cc2cccnc2)cc1OC [Compound 29]
< 100 | COc1cc(NC(=O)c2cc(=O)c3ccccc3o2)c(C(=O)Nc2ccc(CCN(Cc3cccnc3)Cc3ccc4cnn(C)c4c3)cc2)cc1OC [Compound 32]
< 100 | COc1cc(NC(=O)c2cc(=O)c3ccccc3o2)c(C(=O)Nc2ccc(CCN(Cc3ccncc3)Cc3ccc4c(cnn4C)c3)cc2)cc1OC [Compound 33]
100 to 250 | CCn1cncc1CN(CCc1ccc(NC(=O)c2cc(OC)c(OC)cc2NC(=O)c2cnc3ccccc3n2)cc1)Cc1ccc2c(cnn2C)c1 [Compound 34]
100 to 250 | COc1cc(NC(=O)c2cc(=O)c3ccccc3o2)c(C(=O)Nc2ccc(CCN(Cc3ccc4cnn(C)c4c3)Cc3ncc[nH]3)cc2)cc1OC [Compound 36]
100 to 250 | CCN1CNC=C1CN(CCc1ccc(NC(=O)c2cc(OC)c(OC)cc2NC(=O)c2cc(=O)c3ccccc3o2)cc1)Cc1ccc2cnn(C)c2c1 [Compound 37]
100 to 250 | COc1cc(NC(=O)c2cc(=O)c3cc(C)ccc3o2)c(C(=O)Nc2ccc(CCN(Cc3cccnc3)Cc3ccc4c(cnn4C)c3)cc2)cc1OC [Compound 38]
100 to 250 | COc1cc(NC(=O)c2cc(=O)c3ccccc3o2)c(C(=O)Nc2ccc(CCN(Cc3cccnc3)Cc3ccc4c(c3)n(C)c(=O)n4C)cc2)cc1OC [Compound 44]
100 to 250 | COc1cncc(CN(CCc2ccc(NC(=O)c3cc(OC)c(OC)cc3NC(=O)c3cc(=O)c4ccccc4o3)cc2)Cc2ccc3c(cnn3C)c2)c1 [Compound 48]
100 to 250 | COc1cc(NC(=O)c2cc(=O)c3ccccc3o2)c(C(=O)Nc2ccc(CCN(Cc3cccc(-n4ccnc4)c3)Cc3ccc4c(c3)nnn4C)cc2)cc1OC [Compound 50]
100 to 250 | COc1cncc(CN(CCc2ccc(NC(=O)c3cc(OC)c(OC)cc3NC(=O)c3ccc4ccccc4n3)cc2)Cc2ccc3c(cnn3C)c2)c1 [Compound 53]
100 to 250 | COc1cc(NC(=O)c2cc(=O)c3ccccc3o2)c(C(=O)Nc2ccc(CCN(Cc3cccnc3)Cc3cnc4cnc(Br)cn34)cc2)cc1OC [Compound 54]
100 to 250 | CCOc1cncc(CN(CCc2ccc(NC(=O)c3cc(OC)c(OC)cc3NC(=O)c3cc(=O)c4ccccc4o3)cc2)Cc2ccc3c(cnn3C)c2)c1 [Compound 55]
100 to 250 | COc1cc(NC(=O)c2cc(=O)c3cc(C)ccc3o2)c(C(=O)Nc2ccc(CCN(Cc3cncc(O)c3)Cc3ccc4c(cnn4C)c3)cc2)cc1OC [Compound 59]
100 to 250 | COc1cc(NC(=O)c2cc(=O)c3ccccc3o2)c(C(=O)Nc2ccc(CCN(Cc3cncc(C)c3)Cc3ccc4c(c3)c(C)nn4C)cc2)cc1OC [Compound 64]
100 to 250 | COCCOc1cncc(CN(CCc2ccc(NC(=O)c3cc(OC)c(OC)cc3NC(=O)c3cc(=O)c4ccccc4o3)cc2)Cc2ccc3c(c2)c(C)nn3C)c1 [Compound 65]

Reference: US20220106301A1, “ACETAMIDO-PHENYLBENZAMIDE DERIVATIVES AND METHODS OF USING THE SAME” (Athenex, Inc., priority 2020, published 2022)
